Our source for the IC50 and MIC values is patent US8624034B2, “Fluoro-pyridinone derivatives useful as antibacterial agents” (Pfizer Inc., priority 2011, dated 2014).

≈ marks a conversion by molar mass, not a printed value.

One may read the IC50 as the concentration that gives 50% inhibition. As usually defined, the MIC is the least concentration at which growth counts as inhibited.

Assay [1] addresses T1, Pseudomonas aeruginosa LpxC enzyme (Pseudomonas aeruginosa, UniProt P47205).
T1 construct: made in house; host or cells: E. coli
T1 sequence (P47205 1-303): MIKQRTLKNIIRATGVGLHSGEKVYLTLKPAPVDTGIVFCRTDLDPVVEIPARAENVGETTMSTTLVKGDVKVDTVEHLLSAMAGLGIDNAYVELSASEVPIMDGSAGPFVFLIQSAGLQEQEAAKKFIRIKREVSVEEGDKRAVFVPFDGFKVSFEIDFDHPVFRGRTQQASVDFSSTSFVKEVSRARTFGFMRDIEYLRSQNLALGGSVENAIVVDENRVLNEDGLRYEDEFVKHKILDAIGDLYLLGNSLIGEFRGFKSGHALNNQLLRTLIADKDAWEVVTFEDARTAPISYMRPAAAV
The experiment in a line: IC50 assay, LpxC enzyme from P. aeruginosa (PA LpxC enzyme IC50). The class given is biochemical. As to conditions: Table 2; LpxC enzyme 0.1 nM, 25° C., 1 hour; read-out: PA:IC50. In a few lines:
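IC50 values came from percent conversion, referenced to a no-enzyme control. Conversion was read by RapidFire HTMS mass spectrometry after HCl quench of the 1 h enzyme reaction.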

Assay [2] has as its system Acinetobacter baumannii/haemolyticus, multidrug-resistant clinical isolate (AB-3167). The experiment in a line: MIC determination, AB-3167. The class given is cell-based. The following applies: Table 2, lower of duplicate values. In a few lines: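 MIC read visually after overnight growth across 2-fold concentration steps in the CLSI dilution method against the multidrug-resistant clinical isolate. Duplicate determinations, lower value reported when within 2-fold, otherwise repeated; every run checked with control organisms and reference drugs.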

For assay [3], the system named is Escherichia coli EC-1: VOGEL, mouse virulent. The experiment in a line: MIC determination, EC-1. It is filed as cell-based. As to conditions: Escherichia coli, read-out: EC-1 (MIC), Table 2, lower of duplicate values. The gist of the method:
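Duplicate runs differing by more than 2-fold were repeated, and otherwise the lower MIC was kept. The test organism was E. coli EC-1 (VOGEL, mouse virulent), incubated overnight across 2-fold compound dilutions following CLSI guidelines. The MIC was read visually as the lowest concentration inhibiting growth relative to drug-free control.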

Assay [4] has as its system Pseudomonas aeruginosa UI-18: wild-type (PA-7). The experiment in a line: MIC determination, PA-7. The class given is cell-based. As to conditions: Table 2, lower of duplicate values. Here is the method:
The in vitro antibacterial activity of compounds described in the Examples was evaluated by minimum inhibitory concentration (MIC) testing according to Clinical and Laboratory Standards Institute (CLSI). See: Clinical and Laboratory Standards Institute. Methods for Dilution Antimicrobial Susceptibility Tests for Bacteria that Grow Aerobically; Approved Standard-Eighth Edition. CLSI document M7-A8 [ISBN 1-56238-689-1]. Clinical and Laboratory Standards Institute, 940 West Valley Road, Suite 1400, Wayne, Pa. 19087-1898 USA, 2006; also Clinical and Laboratory Standards Institute. Performance Standards for Antimicrobial Susceptibility Testing; Twentieth Informational Supplement. CLSI document M100-S20 [ISBN 1-56238-716-2]. Clinical and Laboratory Standards Institute.
The MIC determination is a standard laboratory method for evaluating the antibacterial activity of a compound. The MIC represents the lowest drug concentration that inhibits visible growth of bacteria following overnight incubation. […] Typically, the drug concentration range is broken down into 2-fold increments (e.g. 0.06 μg/mL, 0.12 μg/mL. 0.25 μg/mL, 0.50 μg/mL, 1.0 μg/mL, etc.) and the various drug concentrations are all individually incubated overnight with approximately the same number of bacteria. The MIC is then determined by visually inspecting the drug effect at each concentration, and identifying the lowest drug concentration that has inhibited bacterial growth as compared to the drug free control. Typically, bacteria continue to grow at drug concentrations lower than the MIC and don't grow at concentrations at and above the MIC.
The MIC values described in Table 2 and 3 below were derived from assays wherein each test compound was evaluated in duplicate. In cases where the duplicate values varied by 0-2-fold, the lower of the two values was reported below. Generally speaking, if the duplicate values varied by more than 2-fold, the assay was considered non-valid and was repeated until the variation between duplicate runs was ≦2-fold. In line with the CLSI guidelines referred to above, both control organisms and reference compounds were utilized in each MIC assay to provide proper quality control. MIC values generated with these control organisms and reference compounds were required to fall within a defined range for the assay to be considered valid and be included herein. Those skilled in the art will recognize that MIC values can and do vary from experiment to experiment. Generally speaking, it should be recognized that MIC values often vary +/−2-fold from experiment to experiment. While a single MIC is reported for each compound and each microorganism, the reader should not conclude that each compound was only tested once. Several of the compounds were subjected to multiple tests. The data reported in Tables 2 and 3 is reflective of the compounds relative activity and different MICs may have been generated on these occasions in line with the guidelines described above.
The following bacterial strains were used in these MIC determinations:
1) Pseudomonas aeruginosa UI-18: Wild-type, labeled as PA-7 in Tables 2 and 3;

Turning to `COc1cnc(-c2ccc(-c3cc(=O)n(CC[C@](C)(C(=O)NO)S(C)(=O)=O)cc3F)cc2)nc1` [Example 21, (2R)-4-{5-Fluoro-4-[4-(5-methoxypyrimidin-2-yl)phenyl]-2-oxopyridin-1(2H)-yl}-N-hydroxy-2-methyl-2-(methylsulfonyl)butanamide], the IC50 in assay [1] is 0.436 nM. The minimum inhibitory concentration (MIC) was greater than 64 µg/mL in assay [2], 0.125 µg/mL (≈ 0.255 µM) in assay [3] and 1 µg/mL (≈ 2.04 µM) in assay [4].
Taken in the same sequence, the figures for `COc1cnn(-c2ccc(-c3cc(=O)n(CC[C@](C)(C(=O)NO)S(C)(=O)=O)cc3F)cc2)n1` [Example 22, (2R)-4-{5-Fluoro-4-[4-(4-methoxy-2H-1,2,3-triazol-2-yl)phenyl]-2-oxopyridin-1(2H)-yl}-N-hydroxy-2-methyl-2-(methylsulfonyl)butanamide] were 0.181 nM, greater than 64 µg/mL, no more than 0.06 µg/mL and 0.5 µg/mL (≈ 1.04 µM).
Taken in the same sequence, the figures for `Cc1cnn(-c2ccc(-c3cc(=O)n(CC[C@](C)(C(=O)NO)S(C)(=O)=O)cc3F)cc2)n1` [Example 23, (2R)-4-{5-Fluoro-4-[4-(4-methyl-2H-1,2,3-triazol-2-yl)phenyl]-2-oxopyridin-1(2H)-yl}-N-hydroxy-2-methyl-2-(methylsulfonyl)butanamide] were 0.287 nM, greater than 64 µg/mL, 0.06 µg/mL (≈ 0.129 µM) and 0.5 µg/mL (≈ 1.08 µM).
On the same counts, the results for `C[C@@](CCn1cc(F)c(-c2ccc3nccnc3c2)cc1=O)(C(=O)NO)S(C)(=O)=O` [Example 24, (2R)-4-(5-Fluoro-2-oxo-4-quinoxalin-6-ylpyridin-1(2H)-yl)-N-hydroxy-2-methyl-2-(methylsulfonyl)butanamide] are 1.23 nM, greater than 64 µg/mL, 4 µg/mL (≈ 9.21 µM) and 4 µg/mL (≈ 9.21 µM).
As to `COc1cccc(-c2cc(=O)n(CC[C@](C)(C(=O)NO)S(C)(=O)=O)cc2F)c1` [Example 25, (2R)-4-[5-Fluoro-4-(3-methoxyphenyl)-2-oxopyridin-1(2H)-yl]-N-hydroxy-2-methyl-2-(methylsulfonyl)butanamide], the IC50 in assay [1] is 0.412 nM. Besides, the MIC in assay [2] was greater than 64 µg/mL; in assay [3], 1 µg/mL (≈ 2.42 µM); in assay [4], 2 µg/mL (≈ 4.85 µM).
Turning to `C[C@@](CCn1cc(F)c(-c2ccc(-n3nccn3)cc2)cc1=O)(C(=O)NO)S(C)(=O)=O` [Example 26, (2R)-4-{5-Fluoro-2-oxo-4-[4-(2H-1,2,3-triazol-2-yl)phenyl]pyridin-1(2H)-yl}-N-hydroxy-2-methyl-2-(methylsulfonyl)butanamide], the IC50 in assay [1] amounted to 0.0743 nM. Further, the MIC is greater than 64 µg/mL in assay [2], no more than 0.06 µg/mL in assay [3] and 0.25 µg/mL (≈ 0.556 µM) in assay [4].
Taken in the same sequence, the figures for `COc1ccc(-c2cc(=O)n(CC[C@](C)(C(=O)NO)S(C)(=O)=O)cc2F)c(F)c1` [Example 27, (2R)-4-[5-Fluoro-4-(2-fluoro-4-methoxyphenyl)-2-oxopyridin-1(2H)-yl]-N-hydroxy-2-methyl-2-(methylsulfonyl)butanamide] were 0.0498 nM, greater than 64 µg/mL, 0.25 µg/mL (≈ 0.581 µM) and 0.5 µg/mL (≈ 1.16 µM).
With `COc1ccc(-c2cc(=O)n(CC[C@](C)(C(=O)NO)S(C)(=O)=O)cc2F)cc1` [Example 28, (2R)-4-[5-Fluoro-4-(4-methoxyphenyl)-2-oxopyridin-1(2H)-yl]-N-hydroxy-2-methyl-2-(methylsulfonyl)butanamide], the half-maximal inhibitory concentration (IC50) in assay [1] was found to be 0.564 nM. Besides, the MIC in assay [2] was greater than 64 µg/mL; in assay [3], 1 µg/mL (≈ 2.42 µM); in assay [4] it was 0.5 µg/mL (≈ 1.21 µM).
For `Cc1ccc(-c2cc(=O)n(CC[C@](C)(C(=O)NO)S(C)(=O)=O)cc2F)cc1` [Example 29, (2R)-4-[5-Fluoro-4-(4-methylphenyl)-2-oxopyridin-1(2H)-yl]-N-hydroxy-2-methyl-2-(methylsulfonyl)butanamide], the IC50 in assay [1] is 0.514 nM. Also, the MIC in assay [2] is greater than 64 µg/mL; in assay [3] it was 0.5 µg/mL (≈ 1.26 µM); in assay [4], 0.5 µg/mL (≈ 1.26 µM).
Consider `C[C@@](CCn1cc(F)c(-c2ccc(OC(F)(F)F)cc2)cc1=O)(C(=O)NO)S(C)(=O)=O` [Example 30, (2R)-4-{5-Fluoro-2-oxo-4-[4-(trifluoromethoxy)phenyl]pyridin-1(2H)-yl}-N-hydroxy-2-methyl-2-(methylsulfonyl)butanamide], for which, in assay [1], the IC50 is 0.106 nM. In addition, the MIC in assay [2] is greater than 64 µg/mL; in assay [3], 0.25 µg/mL (≈ 0.536 µM); in assay [4] it was 0.5 µg/mL (≈ 1.07 µM).
Taken in the same sequence, the figures for `C[C@@](CCn1cc(F)c(-c2ccc(F)cc2)cc1=O)(C(=O)NO)S(C)(=O)=O` [Example 31, (2R)-4-[5-Fluoro-4-(4-fluorophenyl)-2-oxopyridin-1(2H)-yl]-N-hydroxy-2-methyl-2-(methylsulfonyl)butanamide] were 0.213 nM, greater than 64 µg/mL, 1 µg/mL (≈ 2.5 µM) and 0.5 µg/mL (≈ 1.25 µM).
Taken in the same sequence, the figures for `COc1ccc(-c2ccc(-c3cc(=O)n(CC[C@](C)(C(=O)NO)S(C)(=O)=O)cc3F)cc2)cn1` [Example 32, (2R)-4-{5-Fluoro-4-[4-(6-methoxypyridin-3-yl)phenyl]-2-oxopyridin-1(2H)-yl}-N-hydroxy-2-methyl-2-(methylsulfonyl)butanamide] were 0.4 nM, greater than 64 µg/mL, no more than 0.06 µg/mL and 1 µg/mL (≈ 2.04 µM).
As for `C[C@@](CCn1cc(F)c(-c2ccc(OC(F)F)cc2)cc1=O)(C(=O)NO)S(C)(=O)=O` [Example 33, (2R)-4-{4-[4-(Difluoromethoxy)phenyl]-5-fluoro-2-oxopyridin-1(2H)-yl}-N-hydroxy-2-methyl-2-(methylsulfonyl)butanamide], the IC50 in assay [1] came to 0.0606 nM. Further, the MIC in assay [2] was greater than 64 µg/mL; in assay [3], 0.5 µg/mL (≈ 1.12 µM); in assay [4] it was 0.5 µg/mL (≈ 1.12 µM).
With `COc1ccc(-c2cc(=O)n(CC[C@](C)(C(=O)NO)S(C)(=O)=O)cc2F)cc1C` [Example 34, (2R)-4-[5-Fluoro-4-(4-methoxy-3-methylphenyl)-2-oxopyridin-1(2H)-yl]-N-hydroxy-2-methyl-2-(methylsulfonyl)butanamide], the IC50 in assay [1] turned out to be 0.834 nM. In addition, the figures for the minimum inhibitory concentration (MIC) in assay [2], in assay [3] and in assay [4] were greater than 64 µg/mL, 0.25 µg/mL (≈ 0.586 µM) and 0.5 µg/mL (≈ 1.17 µM), respectively.
On the same counts, the results for `C[C@@](CCn1cc(F)c(-c2ccc(OC(F)F)c(F)c2)cc1=O)(C(=O)NO)S(C)(=O)=O` [Example 35, (2R)-4-{4-[4-(difluoromethoxy)-3-fluorophenyl]-5-fluoro-2-oxopyridin-1(2H)-yl}-N-hydroxy-2-methyl-2-(methylsulfonyl)butanamide] are 0.589 nM, greater than 64 µg/mL, 1 µg/mL (≈ 2.14 µM) and 0.5 µg/mL (≈ 1.07 µM).
